From patent publication US11986532B2 (Arvinas Operations, Inc., priority 2021, dated 2024)
Where two headings read alike, the source gives them in different places.

Molecular target: T1, BCL6 (Homo sapiens, UniProt P41182)
T1 construct: endogenous in cells; host or cells: T47D breast cancer epithelial cells
Assay: Immunofluorescence protocol for high content imaging of BCL6 (degradation) in T47D cells, 3 days compound treatment
Format: cell-based
Details: for DC50: read-out: Mean DC50 (nM)* category; for Dmax: read-out: Mean Dmax (%)** category
Protocol: Immunofluorescence Protocol for High Content Imaging of BCL6
T47D cells were seeded in 100 μl volume of RPMI1640-10% FBS in a 96-well black/clear bottom plates for adherent lines (Corning #3904).
Day 1. T47D breast cancer epithelial cells were seeded at a density so that confluence is ˜70-90% at endpoint. Cells were seeded at 7K/0.1 ml/well the morning prior to the addition of exemplary bifunctional degradation compounds.
Day 2. Prepare an 11 point 3-fold serial dilution of exemplary bifunctional compound in DMSO and aliquot an appropriate volume to cell growth media to generate a 2× final concentration of exemplary bifunctional compound. Add an equal volume (0.1 ml) of 2× exemplary bifunctional compound/media mix to previously plated cells, for a final top concentration in aqueous cell growth media of 0.1 or 1 μM. Incubate for 3 days at 37° C., 5% CO2.
Day 5 Immunofluorescence. Discard cell media. Wash wells with 200 μl of room temperature phosphate-buffered saline (PBS). Prepared 4% paraformaldehyde (PFA) from 16% PFA (Electron Microscopy Sciences #15710) using 1×PBS. Fifty μl of 4% PF was added to each well and incubate for 15 minutes at room temperature to fix the cells. The PFA was aspirated and the cells washed twice with PBS (200 μl)).
Prepared 0.1% Triton X-100 in PBS using 10% triton X-100 stock. The cells were permeabilized by adding 100 ul of the 0.1% Triton X-100 in PBS to each well to permeabilize cells and incubating at room temperature for 15 minutes. Cells were washed twice with PBS.
Prepared 3% BSA/PBS (from Thermofisher #37515 Blocker BSA in TBS, 10%), and 100 ul was added to each well. The cells were incubated for at least 1 hour at room temperature.
Prepared 1% BSA/PBS using Blocker BSA/PBS, and the 3% BSA/PBS removed from the wells.
For no primary antibody controls, 50 μl 1% BSA/PBS was added.
Primary antibody (BCL6 Rb Ab, CST-14895, Cell Signaling) was diluted 1:300 in 1% BSA/PBS using Blocker BSA/PBS.
Fifty μl of primary antibody added to all remaining wells (i.e., all wells other than the primary antibody controls) and the cells were incubated overnight at 4° C. with slow orbital movement.
Day 6. Contents of the wells was removed and the cells washed four times with 200 ul PBS. 1% BSA/PBS was prepared using Blocker BSA in PBS.
Diluted secondary antibody goat anti-Rb IgG Alexa-488 1:1000, and cell mask-Alexa-647 1:3000 in 1% BSA/PBS in the same mix. Add 50 μl to each well and incubate at room temperature for 1 hour in the dark.
Cells were washed three times with 200 ul PBS, and then incubated for 10 minutes with 100 ul Hoechst dye at 1 μg/mL (20 mM stock) to stain cell nuclei. Wells were then washed with 200 μl PBS, and 100 ul of PBS was added to each well and the plate covered plate with a plastic opaque cover. Plates were stored at 4° C. and covered in aluminum foil until imaged.
Plates were equilibrated to room temperature prior to reading. The bottom of the plate was wiped with 70% isopropanol immediately prior to imaging.
10×, 4 fields/well, include Top hat smoothing in the analysis protocol.
16% paraformaldehyde: Electron Microscopy Sciences #15710
Hoechst: Thermofisher #62249
Blocker BSA in PBS, 10%: Thermofisher #37515
Blocker BSA in TBS, 10%: Thermofisher #37520
Goat anti-rabbit or mouse AlexaFluor-488: Thermofisher #A11008
Cell mask deep red AlexaFluor-647: Thermofisher #C10046
Wash buffer, PBS: 20×PBS, Thermofisher

[1] = T47D cells, 3 days compound treatment

Row | SMILES | DC50 [1] [nM] | Dmax [1] [%] | DC50 [nM] | Dmax (T47D) [%]
1 | CNC(=O)COc1cc2cc(Nc3nc(N4CCC(O[C@H]5C[C@H](N6CC=C(c7ccc8c(c7Cl)CN(C7CCC(=O)NC7=O)C8=O)CC6)C5)CC4)ncc3Cl)ccc2n(C(C)C)c1=O (stereo partly drawn) [Compound 429, 2-({6-[(5-chloro-2-{4-[(1r,3r)-3-{4-[4-chloro-2-(2,6-dioxopiperidin-3-yl)-1-oxo-2,3-dihydro-1H-isoindol-5-yl]-1,2,3,6-tetrahydropyridin-1-yl}cyclobutoxy]piperidin-1-yl}pyrimidin-4-yl)amino]-2-oxo-1-(propan-2-yl)-1,2-dihydroquinolin-3-yl}oxy)-N-methylacetamide] |  |  | < 10 | ≥ 70
2 | CNC(=O)COc1cc2cc(Nc3nc(N4CCC(O[C@H]5C[C@H](N6CCC(c7cc8c(cc7OC(C)C)C(=O)N(C7CCC(=O)NC7=O)C8=O)CC6)C5)CC4)ncc3Cl)ccc2n(C(C)C)c1=O (stereo partly drawn) [Compound 159, 2-[[6-[[5-chloro-2-[4-[3-[4-[2-(2,6-dioxo-3-piperidyl)-6-isopropoxy-1,3-dioxo-isoindolin-5-yl]-1-piperidyl]cyclobutoxy]-1-piperidyl]pyrimidin-4-yl]amino]-1-isopropyl-2-oxo-3-quinolyl]oxy]-N-methyl-acetamide] | < 10 | ≥ 70 |  | 
3 | CNC(=O)COc1cc2cc(Nc3nc(N4CCC(CN5CCC6(CN(c7ccc8c(c7)C(=O)N(C7CCC(=O)NC7=O)C8=O)C6)C(F)(F)C5)CC4)ncc3Cl)ccc2n(CCOC)c1=O (stereo not drawn) [Compound 126, 2-{[6-({5-chloro-2-[4-({2-[2-(2,6-dioxopiperidin-3-yl)-1,3-dioxo-2,3-dihydro-1H-isoindol-5-yl]-5,5-difluoro-2,7-diazaspiro[3.5]nonan-7-yl}methyl)piperidin-1-yl]pyrimidin-4-yl}amino)-1-(2-methoxyethyl)-2-oxo-1,2-dihydroquinolin-3-yl]oxy}-N-methylacetamide] | < 10 | < 50 |  | 
4 | CNC(=O)COc1cc2cc(Nc3nc(N4CCC(O[C@H]5C[C@H](N6CCN(c7ccc8c(n7)C(C)N(C7CCC(=O)NC7=O)C8=O)[C@H](C)C6)C5)CC4)ncc3Cl)ccc2n(C(C)C)c1=O (stereo in doubt) [Compound 203, 2-({6-[(5-chloro-2-{4-[(1r,3r)-3-[(3R)-4-[6-(2,6-dioxopiperidin-3-yl)-7-methyl-5-oxo-5H,6H, 7H-pyrrolo[3,4-b]pyridin-2-yl]-3-methylpiperazin-1-yl]cyclobutoxy]piperidin-1-yl}pyrimidin-4-yl)amino]-2-oxo-1-(propan-2-yl)-1,2-dihydroquinolin-3-yl}oxy)-N-methylacetamide] | < 10 | ≥ 70 |  | 
5 | CNC(=O)COc1cc2cc(Nc3nc(N4CCN(C(C)(C)C5CCC6(CCN(c7ccc8c(c7)CN(C7CCC(=O)NC7=O)C8=O)C6)C5)CC4)ncc3Cl)ccc2n(C(C)C)c1=O (stereo not drawn) [Compound 74, 2-{[6-({5-chloro-2-[4-(2-{2-[2-(2,6-dioxopiperidin-3-yl)-1-oxo-2,3-dihydro-1H-isoindol-5-yl]-2-azaspiro[4.4]nonan-7-yl}propan-2-yl)piperazin-1-yl]pyrimidin-4-yl}amino)-2-oxo-1-(propan-2-yl)-1,2-dihydroquinolin-3-yl]oxy}-N-methylacetamide] | < 10 | < 50 |  | 
6 | CNC(=O)COc1cc2cc(Nc3nc(N4CCC5(CC4)CN(C(=O)C4CCN(c6cccc7c6CN(C6CCC(=O)NC6=O)C7=O)CC4)C5)ncc3Cl)ccc2n(C(C)C)c1=O (stereo not drawn) [Compound 22, 2-[(6-{[5-chloro-2-(2-{1-[2-(2,6-dioxopiperidin-3-yl)-1-oxo-2,3-dihydro-1H-isoindol-4-yl]piperidine-4-carbonyl}-2,7-diazaspiro[3.5]nonan-7-yl)pyrimidin-4-yl]amino}-2-oxo-1-(propan-2-yl)-1,2-dihydroquinolin-3-yl)oxy]-N-methylacetamide] | < 10 | 50 to 70 |  | 
7 | CC(C)n1c(=O)c(OCC(=O)N(C)C)cc2cc(Nc3nc(N4CCC(CN5CCC6(CC5)CN(c5ccc7c(c5)C(=O)N(C5CCC(=O)NC5=O)C7=O)C6)CC4)ncc3Cl)ccc21 (stereo not drawn) [Compound 55, 2-{[6-({5-chloro-2-[4-({2-[2-(2,6-dioxopiperidin-3-yl)-1,3-dioxo-2,3-dihydro-1H-isoindol-5-yl]-2,7-diazaspiro[3.5]nonan-7-yl}methyl)piperidin-1-yl]pyrimidin-4-yl}amino)-2-oxo-1-(propan-2-yl)-1,2-dihydroquinolin-3-yl]oxy}-N,N-dimethylacetamide] | ≥ 100 | ≥ 70 |  | 
8 | CNC(=O)COc1cc2cc(Nc3nc(N4CCC(O[C@H]5C[C@H](N6CC[C@@H](c7ccc8c(c7F)CN([C@H]7CCC(=O)NC7=O)C8=O)C[C@@H]6C)C5)CC4)ncc3Cl)ccc2n(C(C)C)c1=O [Compound 292, 2-({6-[(5-chloro-2-{4-[(1r,3r)-3-[(2S,4R)-4-{2-[(3S)-2,6-dioxopiperidin-3-yl]-4-fluoro-1-oxo-2,3-dihydro-1H-isoindol-5-yl}-2-methylpiperidin-1-yl]cyclobutoxy]piperidin-1-yl}pyrimidin-4-yl)amino]-2-oxo-1-(propan-2-yl)-1,2-dihydroquinolin-3-yl}oxy)-N-methylacetamide] |  |  | < 10 | ≥ 70

The next lines start with results.

Row | DC50 [1] [nM] | Dmax [1] [%] | DC50 [nM] | SMILES | Dmax (T47D) [%]
9 | < 10 | ≥ 70 |  | CNC(=O)COc1cc2c(F)c(Nc3nc(N4CCC(O[C@H]5C[C@H](N6CCN(c7ccc8c(c7C)C(=O)N(C7CCC(=O)NC7=O)C8=O)CC6)C5)CC4)ncc3Cl)ccc2n(C(C)C)c1=O (stereo partly drawn) [Compound 195] | 
10 |  |  | < 10 | CNC(=O)COc1cc2cc(Nc3nc(N4CCCCC4)ncc3Cl)ccc2n(CCOc2ccc3c(c2)C(=O)N(C2CCC(=O)N(C)C2=O)C3=O)c1=O (stereo not drawn) [Compound 320, 2-[(6-{[5-chloro-2-(piperidin-1-yl)pyrimidin-4-yl]amino}-1-(2-{[2-(1-methyl-2,6-dioxopiperidin-3-yl)-1,3-dioxo-2,3-dihydro-1H-isoindol-5-yl]oxy}ethyl)-2-oxo-1,2-dihydroquinolin-3-yl)oxy]-N-methylacetamide] | 
11 | 10 to 50 |  |  | CNC(=O)COc1cc2cc(Nc3nc(N4CCC5(CCN(CC6(F)CCN(c7c(F)ccc8c7C(=O)N(C7CCC(=O)NC7=O)C8)CC6)CC5)CC4)ncc3Cl)ccc2n(C(C)C)c1=O (stereo not drawn) [Compound 152, 2-{[6-({5-chloro-2-[9-({1-[2-(2,6-dioxopiperidin-3-yl)-5-fluoro-3-oxo-2,3-dihydro-1H-isoindol-4-yl]-4-fluoropiperidin-4-yl}methyl)-3,9-diazaspiro[5.5]undecan-3-yl]pyrimidin-4-yl}amino)-2-oxo-1-(propan-2-yl)-1,2-dihydroquinolin-3-yl]oxy}-N-methylacetamide] | 
12 |  |  | < 10 | CNC(=O)COc1cc2c(F)c(Nc3cc(N4CCN(CC5CCC6(CC5)CN(c5cccc7c5C(=O)N(C5CCC(=O)NC5=O)C7=O)C6)CC4)ncc3Cl)ccc2n(C(C)C)c1=O (stereo not drawn) [Compound 247, 2-{[6-({5-chloro-2-[4-({2-[2-(2,6-dioxopiperidin-3-yl)-1,3-dioxo-2,3-dihydro-1H-isoindol-4-yl]-2-azaspiro[3.5]nonan-7-yl}methyl)piperazin-1-yl]pyridin-4-yl}amino)-5-fluoro-2-oxo-1-(propan-2-yl)-1,2-dihydroquinolin-3-yl]oxy}-N-methylacetamide] | ≥ 70
13 |  |  | < 10 | CNC(=O)COc1cc2cc(Nc3nc(N4CCC(OC5CCC6(CC5)CN(c5ccc(OC)c7c5CN(C5CCC(=O)NC5=O)C7=O)C6)CC4)ncc3Cl)ccc2n(C(C)C)c1=O (stereo not drawn) [Compound 304, 2-{[6-({5-chloro-2-[4-({2-[2-(2,6-dioxopiperidin-3-yl)-7-methoxy-1-oxo-2,3-dihydro-1H-isoindol-4-yl]-2-azaspiro[3.5]nonan-7-yl}oxy)piperidin-1-yl]pyrimidin-4-yl}amino)-2-oxo-1-(propan-2-yl)-1,2-dihydroquinolin-3-yl]oxy}-N-methylacetamide] | 50 to 70
